Results taken from patent US20110071180A1, “SUB-TYPE SELECTIVE AMIDES OF DIAZABICYCLOALKANES” (Targacept, Inc., priority 2008, published 2011).
Like-named read-outs stand apart in the source and are kept apart here.

Columns and labels:
rat α4β2 nAChR subtype = target: T1, rat α4β2 nAChR subtype (Rattus norvegicus, UniProt P09483+P12390); test: Radioligand binding, [3H]nicotine, rat cortex membranes; details: [3H]nicotine 5 nM
T1 construct: The cerebral cortex was removed and placed in 20 volumes (weight:volume) of ice-cold preparative buffer; from tissue; host or cells: rat cerebral cortex membranes (female Sprague-Dawley)
Experimental: Preparation of Membranes from Rat Cortex: Rats (Female, Sprague-Dawley), weighing 150-250 g, were maintained on a 12 h light/dark cycle and were allowed free access to water and food supplied by PMI Nutrition International, Inc. Animals were anesthetized with 70% CO2, and then decapitated. Brains were removed and placed on an ice-cold platform. The cerebral cortex was removed and placed in 20 volumes (weight:volume) of ice-cold preparative buffer (137 mM NaCl, 10.7 mM KCl, 5.8 mM KH2PO4, 8 mM Na2HPO4, 20 mM HEPES (free acid), 5 mM iodoacetamide, 1.6 mM EDTA, pH 7.4); PMSF, dissolved in methanol to a final concentration of 100 μM, was added and the suspension was homogenized by Polytron. The homogenate was centrifuged at 18,000×g for 20 min at 4° C. and the resulting pellet was re-suspended in 20 volumes of ice-cold water. After 60 min incubation on ice, a new pellet was collected by centrifugation at 18,000×g for 20 min at 4° C. The final pellet was re-suspended in 10 volumes of buffer and stored at −20° C.
(§1) On the day of the assay, the frozen membranes were thawed and spun at 48,000×g for 20 min. The supernatant was decanted and discarded. The pellet was resuspended in Dulbecco's phosphate buffered saline (PBS, Life Technologies) pH 7.4 and homogenized with the Polytron for 6 seconds. Protein concentrations were determined using a Pierce BCA Protein Assay Kit, with bovine serum albumin as the standard (Pierce Chemical Company, Rockford, Ill.).
(§2) Membrane preparations (approximately 50 μg for human and 200-300 μg protein for rat α4β2) were incubated in PBS (50 μL and 100 μL respectively) in the presence of competitor compound (0.01 nM to 100 μM) and 5 nM [^3H]nicotine for 2-3 hours on ice. Incubation was terminated by rapid filtration on a multi-manifold tissue harvester (Brandel, Gaithersburg, Md.) using GF/B filters presoaked in 0.33% polyethyleneimine (w/v) to reduce non-specific binding. Tissue was rinsed 3 times in PBS, pH 7.4. Scintillation fluid was added to filters containing the washed tissue and allowed to equilibrate. Filters were then counted to determine radioactivity bound to the membranes by liquid scintillation counting (2200CA Tri-Carb LSC, Packard Instruments, 50% efficiency or Wallac Trilux 1450 MicroBeta, 40% efficiency, Perkin Elmer).
(§3) Data were expressed as disintegrations per minute (DPMs). Within each assay, each point had 2-3 replicates. The replicates for each point were averaged and plotted against the log of the drug concentration. IC50, which is the concentration of the compound that produces 50% inhibition of binding, was determined by least squares non-linear regression. Ki values were calculated using the Cheng-Prussof equation (1973): […]

α7 nAChR subtype = target: T2, α7 nAChR subtype (Rattus norvegicus, UniProt Q05941); test: Radioligand binding, [3H]MLA, rat hippocampus membranes; details: for inhibition at 5 µM: read-out: α7 high through-put screening (HTS) result
T2 construct: The hippocampus was removed and placed in 10 volumes (weight:volume) of ice-cold preparative buffer; from tissue; host or cells: rat hippocampus membranes (female Sprague-Dawley)
Experimental: Rats (female, Sprague-Dawley), weighing 150-250 g, were maintained on a 12 h light/dark cycle and were allowed free access to water and food supplied by PMI Nutrition International, Inc. Animals were anesthetized with 70% CO2, then decapitated. Brains were removed and placed on an ice-cold platform. The hippocampus was removed and placed in 10 volumes (weight:volume) of ice-cold preparative buffer (137 mM NaCl, 10.7 mM KCl, 5.8 mM KH2PO4, 8 mM Na2HPO4, 20 mM HEPES (free acid), 5 mM iodoacetamide, 1.6 mM EDTA, pH 7.4); PMSF, dissolved in methanol to a final concentration of 100 μM, was added and the tissue suspension was homogenized by Polytron. The homogenate was centrifuged at 18,000×g for 20 min at 4° C. and the resulting pellet was re-suspended in 10 volumes of ice-cold water. After 60 min incubation on ice, a new pellet was collected by centrifugation at 18,000×g for 20 min at 4° C. The final pellet was re-suspended in 10 volumes of buffer and stored at −20° C. On the day of the assay, tissue was thawed, centrifuged at 18,000×g for 20 min, and then re-suspended in ice-cold PBS (Dulbecco's Phosphate Buffered Saline, 138 mM NaCl, 2.67 mM KCl, 1.47 mM KH2PO4, 8.1 mM Na2HPO4, 0.9 mM CaCl2, 0.5 mM MgCl2, Invitrogen/Gibco, pH 7.4) to a final concentration of approximately 2 mg protein/mL. Protein was determined by the method of Lowry et al., J. Biol. Chem. 193: 265 (1951), using bovine serum albumin as the standard.
The binding of [^3H]MLA was measured using a modification of the methods of Davies et al., Neuropharmacol. 38: 679 (1999). [^3H]MLA (Specific Activity=25-35 Ci/mmol) was obtained from Tocris. The binding of [^3H]MLA was determined using a 2 h incubation at 21° C. Incubations were conducted in 48-well micro-titre plates and contained about 200 μg of protein per well in a final incubation volume of 300 μL. The incubation buffer was PBS and the final concentration of [^3H]MLA was 5 nM. The binding reaction was terminated by filtration of the protein containing bound ligand onto glass fiber filters (GF/B, Brandel) using a Brandel Tissue Harvester at room temperature. Filters were soaked in de-ionized water containing 0.33% polyethyleneimine to reduce non-specific binding. Each filter was washed with PBS (3×1 mL) at room temperature. Non-specific binding was determined by inclusion of 50 μM non-radioactive MLA in selected wells.
The inhibition of [^3H]MLA binding by test compounds was determined by including seven different concentrations of the test compound in selected wells. Each concentration was replicated in triplicate. IC50 values were estimated as the concentration of compound that inhibited 50 percent of specific [^3H]MLA binding. Inhibition constants (Ki values), reported in nM, were calculated from the IC50 values using the method of Cheng et al., Biochem. Pharmacol. 22: 3099-3108 (1973).

human α4β2 nAChR subtype = target: T3, human α4β2 nAChR subtype (Homo sapiens, UniProt P17787+P43681); test: Radioligand binding, [3H]nicotine, membranes from SH-EP1/human α4β2 clonal cells; details: [3H]nicotine 5 nM, SH-EP1/human α4β2 cell membranes
T3 construct: expressed in transfected cells; host or cells: SH-EP1 clonal cells expressing human α4β2
Experimental: Preparation of membranes from SH-EP1/human α4β2 clonal cells: Cell pellets from 40 150 mm culture dishes were pooled, and homogenized by Polytron (Kinematica GmbH, Switzerland) in 20 milliliters of ice-cold preparative buffer. The homogenate was centrifuged at 48,000 g for 20 minutes at 4° C. The resulting pellet was re-suspended in 20 mL of ice-cold preparative buffer and stored at −20° C.
as §1, §2, §3

[1] = [3H]MLA 5 nM, rat hippocampus membranes, read-out: α7 Ki

T2 sequence (Q05941 23-502): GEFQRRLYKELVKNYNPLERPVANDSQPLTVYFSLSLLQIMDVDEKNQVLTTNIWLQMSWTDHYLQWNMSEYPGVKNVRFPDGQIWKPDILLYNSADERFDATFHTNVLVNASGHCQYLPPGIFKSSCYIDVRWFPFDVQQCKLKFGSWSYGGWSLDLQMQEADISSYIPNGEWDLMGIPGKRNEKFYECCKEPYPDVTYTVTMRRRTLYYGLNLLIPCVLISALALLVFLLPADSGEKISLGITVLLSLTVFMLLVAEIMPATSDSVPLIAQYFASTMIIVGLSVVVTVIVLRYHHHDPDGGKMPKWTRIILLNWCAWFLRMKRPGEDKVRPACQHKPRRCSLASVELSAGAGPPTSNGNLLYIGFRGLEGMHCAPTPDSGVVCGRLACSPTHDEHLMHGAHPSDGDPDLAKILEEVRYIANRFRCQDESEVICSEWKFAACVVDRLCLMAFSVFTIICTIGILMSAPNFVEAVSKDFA
T3 sequence (P43681 29-627 limits assumed): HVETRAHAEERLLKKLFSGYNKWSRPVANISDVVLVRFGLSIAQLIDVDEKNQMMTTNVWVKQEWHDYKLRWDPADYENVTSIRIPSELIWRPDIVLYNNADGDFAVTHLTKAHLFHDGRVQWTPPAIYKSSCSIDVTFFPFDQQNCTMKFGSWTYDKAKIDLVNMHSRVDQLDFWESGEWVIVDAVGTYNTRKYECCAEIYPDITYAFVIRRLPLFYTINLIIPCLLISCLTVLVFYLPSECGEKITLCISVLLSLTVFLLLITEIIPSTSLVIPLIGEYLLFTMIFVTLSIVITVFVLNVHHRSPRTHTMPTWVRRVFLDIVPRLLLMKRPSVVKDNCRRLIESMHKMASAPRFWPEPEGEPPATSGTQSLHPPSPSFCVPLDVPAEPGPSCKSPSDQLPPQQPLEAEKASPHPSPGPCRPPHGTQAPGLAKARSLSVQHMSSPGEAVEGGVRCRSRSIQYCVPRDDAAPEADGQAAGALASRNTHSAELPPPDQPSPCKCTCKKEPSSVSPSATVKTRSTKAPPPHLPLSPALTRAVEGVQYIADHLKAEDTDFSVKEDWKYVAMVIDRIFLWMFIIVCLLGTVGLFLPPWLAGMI
T3 sequence (P17787 26-502): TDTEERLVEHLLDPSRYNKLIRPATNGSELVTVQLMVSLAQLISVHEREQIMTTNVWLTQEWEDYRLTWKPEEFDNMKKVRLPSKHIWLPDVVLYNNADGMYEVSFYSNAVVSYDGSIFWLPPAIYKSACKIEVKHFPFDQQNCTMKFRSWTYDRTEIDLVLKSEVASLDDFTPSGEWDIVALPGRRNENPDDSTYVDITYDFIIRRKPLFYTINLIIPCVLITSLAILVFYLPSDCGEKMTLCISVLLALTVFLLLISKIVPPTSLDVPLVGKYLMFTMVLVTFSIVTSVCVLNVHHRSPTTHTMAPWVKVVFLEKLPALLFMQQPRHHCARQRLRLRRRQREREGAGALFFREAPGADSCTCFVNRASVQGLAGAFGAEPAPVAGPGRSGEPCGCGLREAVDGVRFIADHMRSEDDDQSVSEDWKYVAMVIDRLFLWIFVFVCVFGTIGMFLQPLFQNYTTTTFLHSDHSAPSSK
T1 sequence (P09483 31-630): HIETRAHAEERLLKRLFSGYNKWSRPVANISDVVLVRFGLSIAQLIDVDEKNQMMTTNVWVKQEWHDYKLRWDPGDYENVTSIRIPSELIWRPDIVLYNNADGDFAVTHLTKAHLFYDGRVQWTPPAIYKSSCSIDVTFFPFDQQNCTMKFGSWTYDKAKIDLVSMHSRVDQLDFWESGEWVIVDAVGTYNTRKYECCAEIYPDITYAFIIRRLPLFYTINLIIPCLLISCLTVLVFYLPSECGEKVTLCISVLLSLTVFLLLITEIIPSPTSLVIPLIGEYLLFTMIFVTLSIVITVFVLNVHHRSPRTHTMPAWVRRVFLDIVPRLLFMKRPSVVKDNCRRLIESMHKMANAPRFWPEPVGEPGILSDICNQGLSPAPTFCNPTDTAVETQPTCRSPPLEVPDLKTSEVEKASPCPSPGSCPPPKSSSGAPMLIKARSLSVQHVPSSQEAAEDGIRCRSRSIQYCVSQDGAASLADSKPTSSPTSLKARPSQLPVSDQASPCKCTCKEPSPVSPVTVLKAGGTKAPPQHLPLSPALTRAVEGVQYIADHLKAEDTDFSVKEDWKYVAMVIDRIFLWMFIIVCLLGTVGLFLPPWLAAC
T1 sequence (P12390 25-500): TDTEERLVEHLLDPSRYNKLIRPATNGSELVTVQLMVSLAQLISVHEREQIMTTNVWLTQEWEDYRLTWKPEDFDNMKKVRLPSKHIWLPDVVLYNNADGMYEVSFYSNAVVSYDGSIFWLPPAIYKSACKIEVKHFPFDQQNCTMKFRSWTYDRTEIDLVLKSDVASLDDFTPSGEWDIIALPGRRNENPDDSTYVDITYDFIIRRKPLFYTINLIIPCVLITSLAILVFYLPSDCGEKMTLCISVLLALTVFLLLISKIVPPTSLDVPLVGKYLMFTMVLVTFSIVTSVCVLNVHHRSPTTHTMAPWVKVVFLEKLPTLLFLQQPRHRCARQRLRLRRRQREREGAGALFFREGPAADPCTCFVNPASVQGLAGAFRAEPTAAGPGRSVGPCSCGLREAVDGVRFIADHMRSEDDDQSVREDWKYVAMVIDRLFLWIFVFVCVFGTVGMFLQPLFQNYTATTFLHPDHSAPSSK

Structure (SMILES)	Ki (rat α4β2 nAChR subtype) [µM]	Ki (α7 nAChR subtype; [1]) [µM]	Ki (human α4β2 nAChR subtype) [µM]	inhibition at 5 µM (α7 nAChR subtype) [%]	Ki (α7 nAChR subtype; α7 Ki) [µM]
O=C(C1CC1)N1CC2CNCC(C2)C1 [Example 10-56]	0.0028	0.0957	0.0004		
CC(C)(C)C(=O)N1CC2CNCC(C2)C1 [Example 10-57]	0.112		0.126	< 50	
O=C(C1=CCCC1)N1CC2CNCC(C2)C1 [Example 10-58]	0.177		0.468	< 50	
O=C(C(F)F)N1CC2CNCC(C2)C1 [Example 10-59]	0.0017	0.295	0.0246		
CC(C)=CC(=O)N1CC2CNCC(C2)C1 [Example 10-60]	0.0259		0.0138	< 50	
COCC(=O)N1CC2CNCC(C2)C1 [Example 10-61]	0.05	1.47	0.0388		
COCCC(=O)N1CC2CNCC(C2)C1 [Example 10-62]	0.175		0.127	< 50	
CCC(=O)N1CC2CNCC(C2)C1 [Example 10-63]	0.0121	0.795	0.0104		
C/C=C/CC(=O)N1CC2CNCC(C2)C1 [Example 10-66]	0.0301		0.0167	< 50	
CCCC(=O)N1CC2CNCC(C2)C1 [Example 10-67]	0.0081	0.23	0.0029		
O=C(C1CC1(F)F)N1CC2CNCC(C2)C1 (stereo not drawn) [Example 10-68]	0.0012	0.143	0.0011		
CC1(C)CC1C(=O)N1CC2CNCC(C2)C1 (stereo not drawn) [Example 10-69]	0.0015	0.377	0.001		
CC1(C(=O)N2CC3CNCC(C3)C2)CC1 [Example 10-70]	0.874		0.214	< 50	
CC1CC1C(=O)N1CC2CNCC(C2)C1 (stereo not drawn) [Example 10-71]	0.0014	0.0787	0.001		
O=C(N1CC2CNCC(C2)C1)C1(O)CC1 [Example 10-72]	0.0759		0.225	< 50	
CC1(C)C(C(=O)N2CC3CNCC(C3)C2)C1(C)C [Example 10-73]	0.119		0.0282	< 50	
N#CC1(C(=O)N2CC3CNCC(C3)C2)CC1 [Example 10-74]	4.84		1.34	< 50	
O=C(C1CCC1)N1CC2CNCC(C2)C1 [Example 10-75]	0.0016	0.07	0.0014		
O=C(C1CC12CCC2)N1CC2CNCC(C2)C1 (stereo not drawn) [Example 10-76]	0.0016	0.68	0.0011		
O=C(C1CC=CC1)N1CC2CNCC(C2)C1 [Example 10-77]	0.0256	0.054	0.0125		
O=C([C@H]1C[C@H]1F)N1CC2CNCC(C2)C1 [Example 10-78]	0.0029		0.0017		0.397
O=C([C@H]1C[C@@H]1F)N1CC2CNCC(C2)C1 [Example 10-79]	0.0041		0.002		0.961
O=C(CCF)N1CC2CNCC(C2)C1 [Example 10-80]	0.0138		0.0095	< 50	
CC(C)C(=O)N1CC2CNCC(C2)C1 [Example 10-81]	0.102	0.645	0.0444		
O=C(C1CC(F)C1)N1CC2CNCC(C2)C1 (stereo not drawn) [Example 10-82]	0.0014	1.04	0.0029		
O=C(CC1CC1)N1CC2CNCC(C2)C1 [Example 10-83]	0.0133		0.0339	< 50	
O=C(CS(=O)(=O)c1ccccc1)N1CC2CNCC(C2)C1 [Example 10-84]	0.959		0.598	< 50	
CS(=O)(=O)CC(=O)N1CC2CNCC(C2)C1 [Example 10-85]	0.19		0.131	< 50	
O=C(C1CCCC1)N1CC2CNCC(C2)C1 [Example 10-86]	0.0266	0.211	0.0202		
O=C([C@H]1C[C@@H]1F)N1CC2CNCC(C2)C1 [Example 10-87]	0.0114		0.0052		0.592
